Data on one molecule can be found in patent US8268831B2, “Compounds derived from 2-(3-methylenedioxy)-benzoyl indol” (Biolab Sanus Farmaceutica Ltda., priority 2008, dated 2012).

In test [1] the test system is spontaneous erections in male rats. Kind of test: Test of sexual behavior in rats (spontaneous erections) after oral administration. The following applies: 10 mg/kg oral, observed for 1 hour in presence of females, significantly increased compared to vehicle, average±SEM, FIG. 3. The format is in vivo, rat. The method, then: The utilized protocol was adapted from literature articles (Hosseinzadeh et al., 2008; Rizzo et al., 2008). Two days before execution of experiments, couples of males and females were isolated in plastic boxes. In this period, males were housed for 1 hour per day in reinforced metal cages, rectangular with dimensions of 40×23×33 cm. On the day of the test, the male rats were treated with 10 mg/kg (oral) of compound BL-122 or only with vehicle (saline containing 10% of DMSO). Immediately afterwards, animals were placed in observation cages. The rats that received treatment by oral route were fasted for 4 hours before the test. One and a half (1.5) hours after the oral treatment, the females were placed with the respective males in the cages.

The test system of a further test is isolated aorta of rat. Kind of test: Relaxing effect on isolated rat aorta rings pre-contracted with phenylephrine. The class given is cell-based. The note with it: rat aorta with endothelium previously treated with phenylephrine; cumulative concentrations 1 to 1000 nM; FIG. 2. How it is done:
Experiments used male Wistar rats weighing between 300-350 g. The animals were maintained in an environment with humidity (60-80%) and controlled temperature (22±2° C.), with light-dark cycles of 12 hours and free access to water and rations. Before experiments, the animals were acclimatized in the laboratory for a minimum period of 1 hour. Each animal was used only one time in each test.
The animals were sacrificed by deepening anesthesia with ketamine and xylazine hydrochloride, followed by exsanguination made by section of the carotid artery. After opening of the thoracic cavity, the aorta was carefully removed and transferred to a Petri dish containing Krebs-Henseleit solution, with the following composition (mM): NaCI-118; KCl 4.7; CaCl2 2.5; MgSO4 1.2; KH2PO4 0.9; NaHCO3 25; glucose 11. Afterwards, adipose and adjacent connective tissues were carefully removed. […]
After a period of equilibrium of 60 minutes, the preparations were treated with phenylephrine (0.3-1 μM), and after stabilization of the tonic contraction of the preparation, the integrity of the vascular endothelium was evaluated by the capacity of acetylcholine (ACh, 1 μM) to induce relaxation in the preparations. […]

The subject of test [2] is isolated cavernous body of rabbit. Kind of test: Relaxing effect on isolated cavernous body of rabbit pre-contracted with phenylephrine. The class given is cell-based. The note with it: cumulative concentrations 1 to 1000 nM. How it is done:
Experiments used male rabbits weighing between 3.5 and 4.0 Kg. The animals were anesthetized with sodium pentobarbital (40 mg/kg, i.p), and the abdominal cavity opened for the withdrawal of the penis from the animals. The tissues were placed in a Petri dish containing Krebs-Henseleit solution pH 7.4 (NaCl 118 mM; KCl 4.8 mM; CaCl2 2.5 mM; MgSO4 1.2 mM; KH2PO4 0.9 mM; NaHCO3 25 mM; glucose 11 mM) warmed to 37° C., and cartilage and adherent tissue were carefully removed. In general 3 segments containing approximately 2 cm of length of cavernous body were obtained from each animal. The preparations were mounted on glass reservoirs containing 5 ml of Krebs solution containing indomethacin (5.6 μM) at 37° C., continuously aerated with a mixture of 95% of O2 and 5% of CO2.
The preparations were submitted to a period of equilibrium of at least 90 minutes, under tension of 2 g, during which the bath solution was renewed each 15 minutes. Changes of isometric tension were registered using a TRI-201 force transducer (Letica Scientific Instruments, Spain) connected a polygraph.
After the period of stabilization, the preparations were treated with single concentrations of […] of phenylephrine. […]
The relaxation responses caused by the compounds were calculated in relation to the contractile response of phenylephrine, which is considered as 100% of contraction. […]

As for `CN1CC(=O)N[C@H](Cc2c(C(=O)c3ccc4c(c3)OCO4)[nH]c3ccccc23)C1=O` [Compound BL-122, (R)-3-((2-(benzo[d][1,3]dioxol-5-carbonyl)-1H-indol-3-yl)methyl)-1-methylpiperazine-2,5-dione], the spontaneous erections result in test [1] is recorded as “about 6.4±2.0”. In addition, the “relaxation of rat aorta preparations” value in the test on isolated aorta of rat is on record as “promoted relaxation”. Moreover, the EC50 in test [2] (Oryctolagus cuniculus, cavernous body of rabbit previously contracted with phenylephrine, value with interval in brackets) was found to be 15.9 nM. Further, the “maximum relaxation (efficacy)” value in test [2] (cavernous body of rabbit previously contracted with phenylephrine (contraction = 100%), average±SEM) is reported as 63.1±7.8%.

A word on the EC50: it is the concentration at which the effect is half-maximal. Read a low EC50 as greater potency.
